Results as given in patent US4959460A, “3'-deamino-3'-(2"-substituted-4"-morpholino)-anthracycline compounds” (priority 1988, dated 1990).
Converted amounts (≈) assume the structure as drawn.

Key:
[1] = tested on: P388 mouse leukemia cells; assay: Anti-proliferative activity against cultivated P388 mouse leukemia cells; assay type: cell-based; conditions: P388 cells 5×10^4 cells/ml, RPMI 1640, 10% fetal bovine serum, 37° C., read-out: 50% proliferation-inhibitory concentration (IC50)
Method: (1) Anti-proliferative activity against cultivated P388 mouse leukemia cells:
More specifically, a medium RPMI 1640 (Rosewell Park Memorial Institute medium 1640) containing a given amount of the 3'-deamino-3'-(2"-substituted-4"-morpholino) anthracycline compound and 10% fetal bovine serum was inoculated with cultivated P388 5×10^4 cells/ml. Incubation was carried out at 37° C. in a CO2 incubator, and the number of the cells in each medium was then counted to determine 50% proliferation-inhibitory concentration (IC50, ng/ml) relative to the control (no test compounds added).

[2] = tested on: P388 leukemia; assay: Antitumor activity against P388 leukemia intraperitoneally transplanted into CDF2 mice; assay type: in vivo; conditions: for T/C: control = 100
Method: The effects of the test anthracycline compounds are shown below in terms of T/C (%), the survival days of the control mice to which physiological saline solutions was administered being specified as 100.

[3] = 0.25 mg/kg i.v., day 1 and day 5
[4] = 0.5 mg/kg i.v., day 1 and day 5
[5] = 0.125 mg/kg i.v., day 1 and day 5
[6] = 2 mg/kg i.v., administered only day 1
[7] = 0.29 mg/kg i.v., day 1 and day 5
[8] = 0.44 mg/kg i.v., day 1 and day 5
[9] = 0.66 mg/kg i.v., day 1 and day 5
[10] = 0.99 mg/kg i.v., day 1 and day 5
[11] = 1.48 mg/kg i.v., day 1 and day 5
[12] = 2.22 mg/kg i.v., day 1 and day 5
[13] = 3.33 mg/kg i.v., day 1 and day 5
[14] = 5.00 mg/kg i.v., day 1 and day 5
[15] = 1 mg/kg i.v., administered only day 1
[16] = 16 mg/kg i.v., administered only day 1
[17] = 4 mg/kg i.v., administered only day 1

Structure (SMILES): CC[C@@]1(O)C[C@H](O[C@H]2C[C@H](N3CCO[C@H](C)C3)[C@H](O)[C@H](C)O2)c2c(O)c3c(c(O)c2[C@H]1O)C(=O)c1cccc(O)c1C3=O [3'-Deamino-3'-[(2"R)-2"-methyl-4"-morpholino]-13-deoxo-10-hydroxycarminomycin]
- IC50 [1]: 0.034 µg/mL (≈ 0.0567 µM)

Structure (SMILES): CC[C@@]1(O)C[C@H](O[C@H]2C[C@H](N3CCO[C@@H](N=[N+]=[N-])C3)[C@H](O)[C@H](C)O2)c2c(O)c3c(c(O)c2[C@H]1O)C(=O)c1cccc(O)c1C3=O [3'-Deamino-3'-[(2"R)-2"-azido-4"-morpholino]-13-deoxo-10-hydroxycarminomycin]
- IC50 [1]: 0.0189 µg/mL (≈ 0.0302 µM)
- Number of cured mice/Number of test mice [2, 3]: 0/6
- T/C [2, 3]: 115%
- Number of cured mice/Number of test mice [2, 4]: 0/6
- T/C [2, 4]: 163%
- Number of cured mice/Number of test mice ([2]; 1 mg/kg i.v., day 1 and day 5): 0/6
- T/C ([2]; 1 mg/kg i.v., day 1 and day 5): 196%
- Number of cured mice/Number of test mice ([2]; 2 mg/kg i.v., day 1 and day 5): 0/6
- T/C ([2]; 2 mg/kg i.v., day 1 and day 5): 294%
- Number of cured mice/Number of test mice ([2]; 4 mg/kg i.v., day 1 and day 5): 0/6
- T/C ([2]; 4 mg/kg i.v., day 1 and day 5): 124%

Structure (SMILES): CC[C@@]1(O)C[C@H](O[C@H]2C[C@H](N3CCO[C@@H](OC)C3)[C@H](O)[C@H](C)O2)c2c(O)c3c(c(O)c2[C@H]1O)C(=O)c1cccc(O)c1C3=O [3'-Deamino-3'-[(2"R)-2"-methoxy-4"-morpholino]-13-deoxo-10-hydroxycarminomycin]
- IC50 [1]: 0.009 µg/mL (≈ 0.0146 µM)
- Number of cured mice/Number of test mice [2, 5]: 0/6
- T/C [2, 5]: 119%
- Number of cured mice/Number of test mice [2, 3]: 0/6
- T/C [2, 3]: 149%
- Number of cured mice/Number of test mice [2, 4]: 0/6
- T/C [2, 4]: 172%
- Number of cured mice/Number of test mice ([2]; 1 mg/kg i.v., day 1 and day 5): 0/6
- T/C ([2]; 1 mg/kg i.v., day 1 and day 5): 181%
- Number of cured mice/Number of test mice [2, 6]: 0/6
- T/C [2, 6]: 36%

Structure (SMILES): CC[C@@]1(O)C[C@H](O[C@H]2C[C@H](N3CCOCC3)[C@H](O)[C@H](C)O2)c2c(O)c3c(c(O)c2[C@H]1O)C(=O)c1cccc(O)c1C3=O [3'Deamino-3'-morpholino-R20X2, reference compound]
- Number of cured mice/Number of test mice [2, 7]: 0/6
- T/C [2, 7]: 110%
- Number of cured mice/Number of test mice [2, 8]: 0/6
- T/C [2, 8]: 143%
- Number of cured mice/Number of test mice [2, 9]: 0/6
- T/C [2, 9]: 162%
- Number of cured mice/Number of test mice [2, 10]: 0/6
- T/C [2, 10]: 173%
- Number of cured mice/Number of test mice [2, 11]: 0/6
- T/C [2, 11]: 189%
- Number of cured mice/Number of test mice [2, 12]: 0/6
- T/C [2, 12]: 189%
- Number of cured mice/Number of test mice [2, 13]: 0/6
- T/C [2, 13]: 240%
- Number of cured mice/Number of test mice [2, 14]: 0/6
- T/C [2, 14]: 135%

Structure (SMILES): CC[C@@]1(O)C[C@H](O[C@H]2C[C@H](N3CCO[C@H](NC(C)=O)C3)[C@H](O)[C@H](C)O2)c2c(O)c3c(c(O)c2[C@H]1O)C(=O)c1cccc(O)c1C3=O [3'-Deamino-3'-[(2"S)-2"-acetamido-4"-morpholino]-13-deoxo-10-hydroxycarminomycin]
- IC50 [1]: 0.083 µg/mL (≈ 0.129 µM)
- Number of cured mice/Number of test mice ([2]; 2 mg/kg i.v., day 1 and day 5): 0/6
- T/C ([2]; 2 mg/kg i.v., day 1 and day 5): 124%
- Number of cured mice/Number of test mice ([2]; 4 mg/kg i.v., day 1 and day 5): 0/6
- T/C ([2]; 4 mg/kg i.v., day 1 and day 5): 124%
- Number of cured mice/Number of test mice ([2]; 8 mg/kg i.v., day 1 and day 5): 0/6
- T/C ([2]; 8 mg/kg i.v., day 1 and day 5): 146%
- Number of cured mice/Number of test mice ([2]; 16 mg/kg i.v., day 1 and day 5): 0/6
- T/C ([2]; 16 mg/kg i.v., day 1 and day 5): 340%

Structure (SMILES): CC[C@@]1(O)C[C@H](O[C@H]2C[C@H](N3CCO[C@@H](NC(=O)C(F)(F)F)C3)[C@H](O)[C@H](C)O2)c2c(O)c3c(c(O)c2[C@H]1O)C(=O)c1cccc(O)c1C3=O [3'-Deamino-3'-[(2"R)-2"-trifluoroacetamido-4"-morpholino]-13-deoxo-10-hydroxycarminomycin]
- IC50 [1]: 0.0225 µg/mL (≈ 0.0323 µM)
- Number of cured mice/Number of test mice ([2]; 2 mg/kg i.v., day 1 and day 5): 0/6
- T/C ([2]; 2 mg/kg i.v., day 1 and day 5): 120%
- Number of cured mice/Number of test mice ([2]; 4 mg/kg i.v., day 1 and day 5): 0/6
- T/C ([2]; 4 mg/kg i.v., day 1 and day 5): 150%
- Number of cured mice/Number of test mice ([2]; 8 mg/kg i.v., day 1 and day 5): 0/6
- T/C ([2]; 8 mg/kg i.v., day 1 and day 5): 165%
- Number of cured mice/Number of test mice ([2]; 16 mg/kg i.v., day 1 and day 5): 2/6
- T/C ([2]; 16 mg/kg i.v., day 1 and day 5): 319%

Structure (SMILES): CC[C@@]1(O)C[C@H](O[C@H]2C[C@H](N3CCO[C@H](CO)C3)[C@H](O)[C@H](C)O2)c2c(O)c3c(c(O)c2[C@H]1O)C(=O)c1cccc(O)c1C3=O [3'-Deamino-3'-[(2"S) -2"-hydroxymethyl-4"-morpholino]-13-deoxo-10-hydroxycarminomycin]
- IC50 [1]: 0.02 µg/mL (≈ 0.0325 µM)

Structure (SMILES): CC[C@@]1(O)C[C@H](O[C@H]2C[C@H](N3CCO[C@H](CCl)C3)[C@H](O)[C@H](C)O2)c2c(O)c3c(c(O)c2[C@H]1O)C(=O)c1cccc(O)c1C3=O [3'-Deamino-3'-[(2"S)-2"-chloromethyl-4"-morpholino]-13-deoxo-10-hydroxycarminomycin]
- IC50 [1]: 0.036 µg/mL (≈ 0.0568 µM)

Structure (SMILES): CC[C@@]1(O)C[C@H](O[C@H]2C[C@H](N3CCO[C@H](OC)C3)[C@H](O)[C@H](C)O2)c2c(O)c3c(c(O)c2[C@H]1O)C(=O)c1cccc(O)c1C3=O [3'-Deamino-3'-[(2"S)-2"-methoxy-4"-morpholino]-13-deoxo-10-hydroxycarminomycin]
- IC50 [1]: 0.018 µg/mL (≈ 0.0292 µM)
- Number of cured mice/Number of test mice [2, 5]: 0/6
- T/C [2, 5]: 103%
- Number of cured mice/Number of test mice [2, 3]: 0/6
- T/C [2, 3]: 182%
- Number of cured mice/Number of test mice [2, 4]: 0/6
- T/C [2, 4]: 196%
- Number of cured mice/Number of test mice [2, 15]: 0/6
- T/C [2, 15]: 182%

Structure (SMILES): CC[C@@]1(O)C[C@H](O[C@H]2C[C@H](N3CCO[C@H](NC(=O)C(F)(F)F)C3)[C@H](O)[C@H](C)O2)c2c(O)c3c(c(O)c2[C@H]1O)C(=O)c1cccc(O)c1C3=O [3'-Deamino-3'-[(2"S)-2"-trifluoroacetamido-4"-morpholino]-13-deoxo-10-hydroxycarminomycin]
- IC50 [1]: 0.052 µg/mL (≈ 0.0746 µM)
- Number of cured mice/Number of test mice ([2]; 2 mg/kg i.v., day 1 and day 5): 0/6
- T/C ([2]; 2 mg/kg i.v., day 1 and day 5): 136%
- Number of cured mice/Number of test mice ([2]; 4 mg/kg i.v., day 1 and day 5): 0/6
- T/C ([2]; 4 mg/kg i.v., day 1 and day 5): 181%
- Number of cured mice/Number of test mice ([2]; 8 mg/kg i.v., day 1 and day 5): 0/6
- T/C ([2]; 8 mg/kg i.v., day 1 and day 5): 229%
- Number of cured mice/Number of test mice [2, 16]: 0/6
- T/C [2, 16]: 263%

Structure (SMILES): CC[C@@]1(O)C[C@H](O[C@H]2C[C@H](N3CCO[C@H](N=[N+]=[N-])C3)[C@H](O)[C@H](C)O2)c2c(O)c3c(c(O)c2[C@H]1O)C(=O)c1cccc(O)c1C3=O [3'-Deamino-3'-[(2"S)-2"-azido-4"-morpholino]-13-deoxo-10-hydroxycarminomycin]
- IC50 [1]: 0.024 µg/mL (≈ 0.0383 µM)
- Number of cured mice/Number of test mice [2, 4]: 0/6
- T/C [2, 4]: 122%
- Number of cured mice/Number of test mice ([2]; 1 mg/kg i.v., day 1 and day 5): 0/6
- T/C ([2]; 1 mg/kg i.v., day 1 and day 5): 163%
- Number of cured mice/Number of test mice ([2]; 2 mg/kg i.v., day 1 and day 5): 0/6
- T/C ([2]; 2 mg/kg i.v., day 1 and day 5): 231%
- Number of cured mice/Number of test mice [2, 17]: 1/6
- T/C [2, 17]: 355%
